pIC50: −log10 of the molar value.
target: PD-1/PD-L1 (Homo sapiens (Human), UniProt Q9NZQ7); assay: Homogeneous Time-Resolved Fluorescence (HTRF) binding assay; details: CisBio kit #64CUS000C-1, read-out: IC50 of compounds binding to PD-1/PD-L1
Description: Homogeneous Time-Resolved Fluorescence (HTRF) binding assay was used to determine the binding activity of the compound of the present invention to PD-1/PD-L1.
The purchased kit (CisBio, #64CUS000C-1) contained reagents required for assays such as PD-1, PD-L1, anti-tag1-Eu, Anti-tag2-XL665, Dilute Buffer, and Detection Buffer.
1. The compound was formulated to 10 concentrations with a 3-fold gradient with 100% DMSO.
2. The solution of the compound in DMSO was added to Dilute Buffer, mixed thoroughly, then transferred to a 96-well plate.
3. PD-L1 was diluted with Dilute Buffer, then added to the above 96-well plate.
4. PD-1 was diluted with Dilute Buffer and added to the above 96-well plate, which was then incubated at room temperature for 30 minutes.
5. A portion of anti-tag1-Eu and a portion of anti-tag2-XL665 were added to Detection Buffer, mixed thoroughly and transferred to the above 96-well plate.
6. The mixture in the above 96-well plate was incubated at room temperature for 1 to 24 hours.
7. HTRF values were read with Envision.

Chain of PD-1/PD-L1 (Q9NZQ7 19-238): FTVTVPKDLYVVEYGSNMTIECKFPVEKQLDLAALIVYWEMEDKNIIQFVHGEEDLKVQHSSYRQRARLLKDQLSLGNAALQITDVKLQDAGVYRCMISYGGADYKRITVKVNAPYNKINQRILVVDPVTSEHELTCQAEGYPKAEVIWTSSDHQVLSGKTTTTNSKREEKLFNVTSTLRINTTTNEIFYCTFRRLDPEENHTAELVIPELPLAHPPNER

COc1cc(/C=C/c2cccc(-c3ccccc3)c2C)cc(OC)c1CNC(C)(CO)C(=O)O (stereo not drawn) [Compound 44, (E)-2-(2,6-Dimethoxy-4-(2-(2-methylbiphenyl-3-yl)vinyl)benzylamino)-3-hydroxy-2-methylpropanoic Acid] and COc1cc(/C=C/c2cccc(-c3ccccc3)c2C)cc(OC)c1CN[C@@](C)(CO)C(=O)O [Compound 45, (S,E)-2-(2,6-Dimethoxy-4-(2-(2-methylbiphenyl-3-yl)vinyl)benzylamino)-3-hydroxy-2-methylpropanoic Acid] are within 0.2 log units of each other in pIC50: 7.23 for the first, 7.31 for the second.

Going from COc1cc(/C=C/c2cccc(-c3ccccc3)c2C)cc(OC)c1CN[C@](C)(CO)C(=O)O [Compound 46, (R,E)-2-(2,6-Dimethoxy-4-(2-(2-methylbiphenyl-3-yl)vinyl)benzylamino)-3-hydroxy-2-methylpropanoic Acid] to COc1cc(/C=C/c2cccc(-c3ccccc3)c2C)cc(OC)c1CN1CCCCC1(CO)C(=O)O (stereo not drawn) [Compound 47], the pIC50 falls from 7.32 to 6.04 (1.28 log units). The first is the more potent here.

COc1ccc(-c2cccc(/C=C/c3cc(OC)c(CN[C@@H](CO)C(=O)O)c(OC)c3)c2C)cc1 [Compound 48, (S,E)-2-(2,6-Dimethoxy-4-(2-(4′-methoxy-2-methylbiphenyl-3-yl)vinyl)benzylamino)-3-hydroxypropionic Acid] and COC(=O)c1ccc(-c2cccc(/C=C/c3cc(OC)c(CNC(C)(CO)C(=O)O)c(OC)c3)c2C)cc1 (stereo not drawn) [Compound 49, (E)-2-(2,6-Dimethoxy-4-(2-(4′-(methoxycarbonyl)-2-methylbiphenyl-3-yl)vinyl)benzylamino)-3-hydroxy-2-methylpropanoic Acid] cannot be ordered by pIC50: under 5.00 for the first, under 5.00 for the second.

First: COc1ccc(-c2cccc(/C=C/c3cc(OC)c(CNC(C)(CO)C(=O)O)c(OC)c3)c2C)cc1 (stereo not drawn) [Compound 50, (E)-2-(2,6-Dimethoxy-4-(2-(4′-methoxy-2-methylbiphenyl-3-yl)vinyl)benzylamino)-3-hydroxy-2-methylpropionic Acid]
Second: COC(=O)c1cccc(-c2cccc(/C=C/c3cc(OC)c(CNC(C)(CO)C(=O)O)c(OC)c3)c2C)c1 (stereo not drawn) [Compound 51, (E)-2-(2,6-Dimethoxy-4-(2-(3′-methoxycarbonyl-2-methylbiphenyl-3-yl)vinyl)benzylamino)-3-hydroxy-2-methylpropionic Acid]
The pIC50 of the first is 0.99 log units lower: 5.10 for the first, 6.09 for the second.

COc1cc(/C=C/c2cccc(-c3cccc(CO)c3)c2C)cc(OC)c1CNC(C)(CO)C(=O)O (stereo not drawn) [Compound 52, (E)-2-(2,6-Dimethoxy-4-(2-(3′-hydroxymethyl-2-methylbiphenyl-3-yl)vinyl)benzylamino)-3-hydroxy-2-methylpropionic Acid] and COc1cc(/C=C/c2cccc(-c3ccccc3)c2C)cc(OC)c1CNc1cccc(O)c1C(=O)O [Compound 53, (E)-2-(2,6-Dimethoxy-4-(2-(2-methylbiphenyl-3-yl)vinyl)benzylamino)-6-hydroxybenzoic Acid] cannot be ordered by pIC50: under 5.00 for the first, under 5.00 for the second.

First: COc1ccc(-c2cccc(/C=C/c3cc(OC)c(CNc4cccc(O)c4C(=O)O)c(OC)c3)c2C)cc1 [Compound 54, (E)-2-(2,6-Dimethoxy-4-(2-(4′-methoxy-2-methylbiphenyl-3-yl)vinyl)benzylamino)-6-hydroxybenzoic Acid]
Second: COc1cc(/C=C/c2cccc(-c3ccc(C(N)=O)cc3)c2C)cc(OC)c1CNc1cccc(O)c1C(=O)O [Compound 55, (E)-2-(2,6-Dimethoxy-4-(2-(4′-carbamoyl-2-methylbiphenyl-3-yl)vinyl)benzylamino)-6-hydroxy-benzoic Acid]
The pIC50 of the first is lower: under 5.00 for the first, 5.35 for the second.

COc1cc(/C=C/c2cccc(-c3ccc4c(c3)OCCO4)c2C)cc(OC)c1CNC(CO)C(=O)O (stereo not drawn) [Compound 56, (E)-2-(4-(3-(2,3-Dihydrobenzo[b][1,4]dioxin-6-yl)-2-methylstyryl)-2,6-dimethoxybenzylamino)-3-hydroxypropanoic Acid] and COc1cc(/C=C/c2cccc(-c3ccc4c(c3)OCCO4)c2C)cc(OC)c1CNC(C)(CO)C(=O)O (stereo not drawn) [Compound 57, (E)-2-(4-(3-(2,3-Dihydrobenzo[b][1,4]dioxin-6-yl)-2-methylstyryl)-2,6-dimethoxybenzylamino)-3-hydroxy-2-methylpropanoic Acid] are within 0.2 log units of each other in pIC50: 7.00 for the first, 7.15 for the second.

COc1cc(/C=C/c2cccc(-c3ccccc3)c2C)cc(OC)c1CNc1ccc(C(=O)O)c(O)c1 [Compound 58, (E)-4-(2,6-Dimethoxy-4-(2-(2-methylbiphenyl-3-yl)vinyl)benzylamino)-2-hydroxybenzoic Acid] and COc1cc(/C=C/c2cccc(-c3ccccc3)c2C)cc(OC)c1CNc1ccc(O)c(C(=O)O)c1 [Compound 59, (E)-5-(2,6-Dimethoxy-4-(2-(2-methylbiphenyl-3-yl)vinyl)benzylamino)-2-hydroxybenzoic Acid] cannot be ordered by pIC50: under 5.00 for the first, under 5.00 for the second.

COc1cc(N2C=CCN2c2cccc(-c3ccccc3)c2C)cc(OC)c1CNC(CO)C(=O)O (stereo not drawn) [Compound 60, 2-(2,6-Dimethoxy-4-(2-(2-methylbiphenyl-3-yl)-1H-pyrazol-1-yl)benzylamino)-3-hydroxypropanoic Acid] and COc1cc(/C=C/c2cccc(-c3cnn(C)c3)c2C)cc(OC)c1CN[C@@H](CO)C(=O)O [Compound 61] cannot be ordered by pIC50: under 5.00 for the first, under 5.00 for the second.

Going from COc1cc(/C=C/c2cccc(-c3ccc4c(c3)OCCO4)c2C)ccc1CN[C@@H](CO)C(=O)O [Compound 62, (S,E)-2-(4-(3-(2,3-Dihydrobenzo[b][1,4]dioxin-6-yl)-2-methylstyryl)-2-methoxybenzylamino)-3-hydroxypropanoic Acid] to COc1cc(/C=C/c2cncc(-c3ccccc3)c2C)cc(OC)c1CN[C@@H](CO)C(=O)O [Compound 63, (S,E)-2-(2,6-dimethoxy-4-(2-(4-methyl-5-phenylpyridin-3-yl)vinyl)benzylamino)-3-hydroxypropanoic Acid], the pIC50 falls from 6.92 to 5.41 (1.51 log units). The first is the more potent here.

First: COc1cc(/C=C/c2cncc(-c3ccc4c(c3)OCCO4)c2C)cc(OC)c1CN[C@@H](CO)C(=O)O [Compound 64, (S,E)-2-(4-(2-(5-(2,3-Dihydrobenzo[b][1,4]dioxin-6-yl)-4-methylpyridin-3-yl)vinyl)-2,6-dimethoxybenzylamino)-3-hydroxypropanoic Acid]
Second: COc1cc(/C=C/c2cncc(-c3ccccc3)c2C)cc(OC)c1CNC(C)(CO)C(=O)O (stereo not drawn) [Compound 65, (E)-2-(2,6-Dimethoxy-4-(2-(4-methyl-5-phenylpyridin-3-yl)vinyl)benzylamino)-3-hydroxy-2-methylpropionic Acid]
The pIC50 of the first is 0.32 log units lower: 5.38 for the first, 5.70 for the second.

COc1cc(/C=C/c2cncc(-c3ccc4c(c3)OCCO4)c2C)cc(OC)c1CNC(C)(CO)C(=O)O (stereo not drawn) [Compound 66, (E)-2-(4-(2-(5-(2,3-Dihydrobenzo[b][1,4]dioxin-6-yl)-4-methylpyridin-3-yl)vinyl)-2,6-dimethoxybenzylamino)-3-hydroxy-2-methylpropanoic Acid] and Cc1c(/C=C/c2cc(CN3CCC[C@H]3CO)ccc2C(F)(F)F)cccc1-c1ccc2c(c1)OCCO2 [Compound 67, (S,E)-(1-(3-(3-(2,3-Dihydrobenzo[b][1,4]dioxin-6-yl)-2-methylstyryl)-4-(trifluoromethyl)benzyl)pyrrolidin-2-yl)methanol] are within 0.2 log units of each other in pIC50: 5.54 for the first, 5.62 for the second.

Compared with Cc1cc(CNC(CO)C(=O)O)cnc1/C=C/c1cccc(-c2ccc3c(c2)OCCO3)c1C (stereo not drawn) [Compound 69, (E)-2-((6-(3-(2,3-Dihydrobenzo[b][1,4]dioxin-6-yl)-2-methylstyryl)-5-methylpyridin-3-yl)methylamino)-3-hydroxypropanoic Acid], “(R,E)-2-(3-Chloro-4-(2-(2-methylbiphenyl-3-yl)vinyl)benzylamino)-3-hydroxypropionamide [Compound 34]” is 0.97 log units lower in pIC50: 7.44 for the first, 6.47 for the second. The first is the more potent here.

With “(S,E)-2-(3-Chloro-4-(2-(2-methylbiphenyl-3-yl)vinyl)benzylamino)-3-hydroxypropanamide [Compound 33]” the pIC50 was 6.32.
